Data taken from patent publication US9233961B2, “Compounds and compositions for the treatment of parasitic diseases” (Novartis AG, priority 2013, dated 2016).
Like-named read-outs stand apart in the source and are kept apart here.

What was measured:
[1] = patients injected; cited from earlier work
[2] = tested on: Trypanosoma cruzi amastigotes (Tulahuen strain) cultured in 3T3 fibroblast cells; experiment: Assay for proliferation of kinetoplastid parasite Trypanosoma cruzi; format: cell-based; details: 144 h
Description: Assay for Proliferation of Kinetoplastid Parasite Trypanosoma cruzi.
Compounds of the invention can be assayed to measure their capacity to inhibit proliferation of kinetoplastid parasite Trypanosoma cruzi. The screening procedure is for identifying compounds with inhibitor activity against Trypanosoma cruzi amastigotes cultured in 3T3 fibroblast cells. The assay is done using the mammalian stage (amastigotes) of T. cruzi that replicates in the intracellular space of host cells. The host cells are initially infected with the culture-derived trypomastigotes that rapidly invade and then divide as amastigotes. The protocol uses the Tulahuen strain of T. cruzi that has been engineered to express the E. coli beta-galactosidase gene (Lac-Z) (Antimicr. Agents Chemoth. 40:2592, 1996). This allows for a colorimetric readout by using the substrate CPRG and an absorbance plate reader.
3T3 fibroblast cells are re-suspended in RPMI-1640 medium without phenol red medium supplemented with 10% FBS (heat inactivated), 100 μg/ml penicillin, and 100 μg/ml streptomycin. Forty μL of suspension (1,000 cells) is dispensed into 384-well plates and incubated overnight at 37° C. temperature and in atmosphere containing 5% CO2. The following day, 100 nL of compounds of the invention in DMSO are added to plate wells containing 3T3 cells. At the same time control compounds (benznidazole and nifurtimox) and DMSO are added to plates to serve as the positive and negative controls, respectively. After that, 10 μL of media containing 10,000 T. cruzi trypomastigotes are added to each plate well and plates are placed back into incubators. After 6 day incubation, 10 μL of reagent solution (0.6 mM CPRG, 0.6% NP-40 in PBS) is added to plates and incubated at room temperature for 2 hours. Absorbance is then measured on SpectraMax Gemini […] to determine relative number of T. cruzi cells present in each plate well. The percentage inhibition of 50%, EC50, is calculated for each compound. […] Typically, the EC50 is 10 μM or less.

[3] = tested on: L. donovani HU3 strain in mouse peritoneal macrophages; experiment: Assay for proliferation of Leishmania parasites in mouse peritoneal macrophages; format: cell-based, Leishmania donovani
Method in brief: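 BALB/c peritoneal macrophages infected 24 h with L. donovani HU3 amastigotes taken from spleens of mice infected 9–11 weeks, then treated with compound for 5 days at 37° C, 5% CO2. Parasite nuclei counted by SYBR Green imaging after fixation; EC50 from percentage inhibition.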

[4] = tested on: Trypanosoma brucei Lister 427 strain bloodstream form; experiment: Assay for proliferation of kinetoplastid parasite Trypanosoma brucei; format: cell-based
Method in brief: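 Bloodstream-form T. brucei Lister 427 in HMI-9 medium was exposed to compound (DMSO vehicle) for 48 hours at 37° C, 5% CO2. Parasite growth was read as ATP by CellTiter-Glo luminescence, with EC50 calculated from percent inhibition.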

[5] = tested on: Leishmania donovani axenic amastigote parasites; experiment: Leishmania donovani axenic amastigote proliferation assay; format: cell-based; details: read-out: L. donovani amastigotes EC50
Method in brief: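 L. donovani axenic amastigotes (9600/well) in RPMI 1640 with 20% heat-inactivated FBS, folic acid, adenosine, glucose and 25 mM MES, pH 5.5, were incubated with compounds for 2 days at 37 °C, 5% CO2. Viability read by CellTiter-Glo luminescence; EC50 calculated.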

[6] = Tulahuen amastigotes in 3T3 fibroblast cells, 6 day incubation, read-out: T cruzi EC50
[7] = Leishmania donovani, Peritoneal macrophage, read-out: L. donavani Macrophage EC50
[8] = Lister 427 bloodstream form, 48 hours, read-out: T. brucei EC50
[9] = TULAHUEN, Fibroblast, read-out: T cruzi EC50

| SMILES | EC50 [2, 6] [µM] | EC50 [3, 7] [µM] | EC50 [4, 8] [µM] | EC50 ([5]; axenic amastigotes in vitro) [µM] | other results |
| --- | --- | --- | --- | --- | --- |
| Nc1nc(N)nc(Nc2ccc([As]3SCC(CO)S3)cc2)n1 (stereo not shown) [Melarsoprol] |  |  |  |  | patients who developed reactive encephalopathy (convulsions, progressive coma, or psychotic reactions) [1]: 3-10%; reactive encephalopathy cases that result in death [1]: 10-70% |
| Cc1cnc2nc(-c3cc(NC(=O)NCCCCCCN(C)C)ccc3Cl)[nH]c2c1 [Compound 228] | > 20 | > 50 | > 25 | > 25 |  |
| COCCOC(=O)Nc1ccc(Cl)c(-c2nc3ncc(Br)cc3[nH]2)c1 [Compound 371] | 3.3 | 6.5 | 2.21 | 2.35 |  |
| CCOC(=O)Nc1ccc(Cl)c(-c2nc3ncc(Br)cc3[nH]2)c1 [Example 370, Ethyl N-(3-{6-bromo-1H-imidazo[4,5-b]pyridin-2-yl}-4-chlorophenyl)carbamate] |  | 7.4 |  |  | EC50 [2, 9]: 1.2 µM; EC50 ([4]; 48 h, read-out: T. brucei EC50): 0.52 µM; EC50 [5]: 2.53 µM |
| Cc1cnc2nc(-c3cc(NC(=O)OC(C)C)ccc3Cl)[nH]c2c1 [Compound 216] | 0.7 | 2.83 | 0.46 | 2.59 |  |
| COCCOC(=O)Nc1ccc(Cl)c(-c2nc3ncc(-c4ccc5c(c4)CC(=O)N5)cc3[nH]2)c1 [Compound 379] | 13.2 | 8.7 | 0.69 | 1.49 |  |
| Cc1cnc2nc(-c3cc(NC(=O)c4ccc(N5CCOCC5)cn4)ccc3Cl)[nH]c2c1 [Compound 84] | 2.3 | > 50 | 2.13 | 6.7 |  |
| Cc1cnc2nc(-c3cc(NC(=O)c4cccc(N5CCOCC5)c4)ccc3Cl)[nH]c2c1 [Compound 195] | 8.8 | > 50 | 7.8 | 21.2 |  |
| Cc1cnc2nc(-c3cc(NC(=O)c4cc(Cl)ccc4Cl)ccc3Cl)[nH]c2c1 [Compound 98] | 1.18 | 23.5 | 2.91 | 16.7 |  |
| Cc1cnc2nc(-c3cc(NC(=O)Cc4ccc(F)cc4)ccc3Cl)[nH]c2c1 [Compound 125] | 9.6 | 8.6 | 10 | > 25 |  |
| Cc1cnc2nc(-c3cc(NC(=O)c4cccn4C)ccc3Cl)[nH]c2c1 [Compound 151] | 3.7 | 19.5 | 1.83 | 17.1 |  |
| Cc1cnc2nc(-c3cc(NC(=O)c4cccc(N5CCCCC5)c4)ccc3Cl)[nH]c2c1 [Compound 99] | 5.5 | > 50 | 6.3 | > 25 |  |
| COC(=O)Nc1ccc(-c2cnc3nc(-c4cc(NC(=O)c5ccco5)ccc4Cl)[nH]c3c2)cc1 [Compound 58, methyl N-(4-{2-[2-chloro-5-(furan-2-amido)phenyl]-1H-imidazo[4,5-b]pyridin-6-yl}phenyl)carbamate] | 0.0193 | 0.284 | 0.0051 | 0.051 | EC50 ([4]; T. brucei Lister 427, 48 hours, Cell Titer Glo, read-out: EC50): 0.005 µM |
| O=C(Cc1cccc(Cl)c1)Nc1ccc(Cl)c(-c2nc3ncc(C(F)(F)F)cc3[nH]2)c1 [Compound 280] | 3.4 | 27.4 | > 13.6 | 21.2 |  |
| Cc1cnc2nc(-c3cc(NC(=O)c4ccccn4)ccc3Cl)[nH]c2c1 [Compound 83] | 1.3 | 23.3 | 0.93 | 7 |  |
| Cc1cnc2nc(-c3cc(NC(=O)c4cncnc4)ccc3Cl)[nH]c2c1 [Compound 187] | > 11.5 | > 42.2 | 4.2 | 6.9 |  |
| O=C(Nc1ccc(Cl)c(-c2nc3ncc(C4=CCNCC4)cc3[nH]2)c1)c1ccco1 [Compound 70] | 0.49 | 20.8 | 0.174 | 6 |  |
| O=C(Nc1ccc(Cl)c(-c2nc3ncc(-c4ccccc4)cc3[nH]2)c1)N1CCCC1 [Example 291, N-(4-chloro-3-{6-phenyl-1H-imidazo[4,5-b]pyridin-2-yl}phenyl)pyrrolidine-1-carboxamide] |  |  | 0.0152 | 0.076 | EC50 ([2]; TULAHUEN, Fibroblast): 0.016 µM; EC50 [2, 9]: 0.0161 µM; EC50 ([3]; L. donovani in mouse peritoneal macrophages, 5 days culture, SybrGreen parasite nuclei count, read-out: EC50): ~0.08 µM; EC50 ([3]; Leishmania donovani, Peritoneal macrophage, 120 h, L. donovani in mouse peritoneal macrophages, 5 days culture, SybrGreen parasite nuclei count, read-out: EC50): 0.076 µM |
